Data taken from the Kinase Knowledgebase extract (Sharma et al. 2016).

target: ROCK2 (human) (UniProt O75116); experiment: Inhibition of ROCK2 Kinase Activity
Sequence (O75116 whole entry, looked up): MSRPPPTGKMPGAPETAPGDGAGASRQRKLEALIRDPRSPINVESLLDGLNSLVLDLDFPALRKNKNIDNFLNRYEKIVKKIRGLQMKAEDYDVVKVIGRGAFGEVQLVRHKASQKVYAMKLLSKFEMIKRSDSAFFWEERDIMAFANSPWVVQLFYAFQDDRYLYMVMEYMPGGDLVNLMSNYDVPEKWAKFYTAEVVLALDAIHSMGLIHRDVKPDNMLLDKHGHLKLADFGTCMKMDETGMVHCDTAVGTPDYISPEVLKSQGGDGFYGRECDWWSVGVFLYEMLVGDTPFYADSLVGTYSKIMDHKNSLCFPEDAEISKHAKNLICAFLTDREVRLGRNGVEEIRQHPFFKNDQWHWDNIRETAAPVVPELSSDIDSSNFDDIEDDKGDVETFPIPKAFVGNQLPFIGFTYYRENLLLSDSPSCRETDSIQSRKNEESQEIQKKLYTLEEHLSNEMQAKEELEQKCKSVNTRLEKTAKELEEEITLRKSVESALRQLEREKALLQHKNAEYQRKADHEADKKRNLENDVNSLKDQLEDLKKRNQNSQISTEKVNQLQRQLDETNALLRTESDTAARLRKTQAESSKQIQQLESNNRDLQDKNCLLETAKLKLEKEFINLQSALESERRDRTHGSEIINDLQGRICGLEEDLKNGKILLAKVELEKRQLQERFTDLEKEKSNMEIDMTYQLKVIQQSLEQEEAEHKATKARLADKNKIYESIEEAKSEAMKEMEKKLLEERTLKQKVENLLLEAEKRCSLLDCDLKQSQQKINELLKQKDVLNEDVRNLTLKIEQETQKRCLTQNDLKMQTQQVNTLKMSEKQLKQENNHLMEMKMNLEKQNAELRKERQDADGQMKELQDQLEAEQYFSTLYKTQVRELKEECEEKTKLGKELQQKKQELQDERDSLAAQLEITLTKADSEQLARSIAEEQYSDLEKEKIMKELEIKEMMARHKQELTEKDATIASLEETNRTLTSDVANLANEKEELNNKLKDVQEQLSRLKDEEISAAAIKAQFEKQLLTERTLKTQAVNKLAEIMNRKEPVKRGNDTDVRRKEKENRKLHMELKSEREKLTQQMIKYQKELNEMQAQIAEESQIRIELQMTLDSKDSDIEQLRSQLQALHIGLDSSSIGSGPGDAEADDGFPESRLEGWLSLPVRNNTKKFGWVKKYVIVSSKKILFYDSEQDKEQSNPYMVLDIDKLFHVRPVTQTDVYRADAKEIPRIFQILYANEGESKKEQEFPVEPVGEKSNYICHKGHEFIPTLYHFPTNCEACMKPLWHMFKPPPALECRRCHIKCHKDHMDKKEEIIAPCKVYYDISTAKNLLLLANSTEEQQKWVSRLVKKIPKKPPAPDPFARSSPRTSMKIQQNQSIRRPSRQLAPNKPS

`O=C(Cc1ccccc1)NCc1nc(-c2c[nH]c3ncccc23)n[nH]1` and `Cc1ccccc1CC(=O)NCc1nc(-c2c[nH]c3ncccc23)n[nH]1` cannot be ordered by IC50: > 5 µM for the first, > 5 µM for the second.

`CC(C)CC(NC(=O)OC(C)(C)C)C(=O)NCc1nc(-c2c[nH]c3ncccc23)n[nH]1` (stereo not given) and `CC(=O)Oc1ccccc1C(=O)NCc1nc(-c2c[nH]c3ncccc23)n[nH]1` cannot be ordered by IC50: > 5 µM for the first, > 5 µM for the second.

`O=C(NCc1nc(-c2c[nH]c3ncccc23)n[nH]1)c1ccccc1Cc1ccccc1` and `O=C(NCc1nc(-c2c[nH]c3ncccc23)n[nH]1)c1ccccc1C(=O)c1ccc(O)cc1` cannot be ordered by IC50: > 5 µM for the first, > 5 µM for the second.

`O=C(NCc1nc(-c2ccncc2)n[nH]1)c1ccccn1` and `O=C(NCc1nc(-c2ccncc2)n[nH]1)c1cc(Br)ccc1Cl` cannot be ordered by IC50: > 5 µM for the first, > 5 µM for the second.

`CC(C)Oc1ccc(C(=O)NCc2nc(-c3ccncc3)n[nH]2)cc1` and `O=Cc1ccc(C(=O)NCc2nc(-c3ccncc3)n[nH]2)cc1` cannot be ordered by IC50: > 5 µM for the first, > 5 µM for the second.

`O=C(NCc1nc(-c2c[nH]c3ncccc23)n[nH]1)c1c(F)cccc1F` and `O=C(NCc1nc(-c2c[nH]c3ncccc23)n[nH]1)c1ccc(F)cc1Cl` cannot be ordered by IC50: > 5 µM for the first, > 5 µM for the second.

`O=C(NCc1nc(-c2ccncc2)n[nH]1)c1cc2ccccc2cc1O` and `COc1ccc(C(=O)NCc2nc(-c3ccncc3)n[nH]2)cc1O` cannot be ordered by IC50: ≤ 5 µM for the first, > 5 µM for the second.

`Cc1ccccc1OCC(=O)NCc1nc(-c2c[nH]c3ncccc23)n[nH]1` and `Cc1ccc(C)c(C(=O)NCc2nc(-c3c[nH]c4ncccc34)n[nH]2)c1` cannot be ordered by IC50: > 5 µM for the first, > 5 µM for the second.

`CN(C=O)c1ccc(C(=O)NCc2nc(-c3ccncc3)n[nH]2)cc1` and `O=C(NCc1nc(-c2ccncc2)n[nH]1)c1ccc(F)c([N+](=O)[O-])c1` cannot be ordered by IC50: > 5 µM for the first, > 5 µM for the second.

`COc1ccccc1CCC(=O)NCc1nc(-c2ccncc2)n[nH]1` and `O=C(CCc1nc2ccccc2[nH]1)NCc1nc(-c2ccncc2)n[nH]1` cannot be ordered by IC50: > 5 µM for the first, > 5 µM for the second.

`O=C(NCc1nc(-c2c[nH]c3ncccc23)n[nH]1)C1CCCN1C(=O)OCc1ccccc1` (stereo not given) and `O=C(NCc1nc(-c2c[nH]c3ncccc23)n[nH]1)c1cccc(O)c1` cannot be ordered by IC50: > 5 µM for the first, > 5 µM for the second.

`O=C(NCc1nc(-c2ccncc2)n[nH]1)c1cc(F)c(Cl)cc1F` and `O=C(Cc1ccc(O)c(Cl)c1)NCc1nc(-c2ccncc2)n[nH]1` cannot be ordered by IC50: > 5 µM for the first, > 5 µM for the second.

In the case of `O=C(Cc1cccc(O)c1)NCc1nc(-c2ccncc2)n[nH]1`, the IC50 is reported as > 5 µM.
